Laboratory results published in patent US8324246B2, “Indol carboxylic acid bispyridyl carboxamide derivatives, pharmaceutically acceptable salt thereof, preparation method and composition containing the same as an active ingredient” (Korea Research Institute of Chemical Technology, priority 2008, dated 2012).
pIC50: −log10 of the molar value. Read-outs that look alike come from different tables or passages of the source.

Tests used:
5-HT7 = 5-HT7 (Homo sapiens, UniProt P34969); test: Receptor selectivity binding, 5-HT7; details: Table 3
Sequence of 5-HT7 (P34969 whole entry, species assumed): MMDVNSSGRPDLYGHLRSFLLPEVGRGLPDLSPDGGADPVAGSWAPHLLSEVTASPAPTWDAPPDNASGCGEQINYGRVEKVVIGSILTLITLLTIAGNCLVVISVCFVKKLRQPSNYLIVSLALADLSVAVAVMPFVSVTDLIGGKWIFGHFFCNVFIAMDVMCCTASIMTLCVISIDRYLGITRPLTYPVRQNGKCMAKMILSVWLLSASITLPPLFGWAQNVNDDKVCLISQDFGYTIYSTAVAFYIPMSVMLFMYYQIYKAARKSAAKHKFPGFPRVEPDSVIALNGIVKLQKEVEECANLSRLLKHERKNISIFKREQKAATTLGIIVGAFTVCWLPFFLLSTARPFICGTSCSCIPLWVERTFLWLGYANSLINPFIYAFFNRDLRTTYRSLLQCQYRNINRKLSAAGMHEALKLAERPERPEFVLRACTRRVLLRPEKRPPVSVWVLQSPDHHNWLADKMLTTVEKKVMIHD
Protocol: (§1) For their high binding affinities for 5-HT2c, compounds in Examples 14 to 18, 20, and 22 or in Comparative Example 1 were used for the experiment with reaction mixtures. Except that CNS receptors such as 5-HT1a, 5-HT2a, 5-HT7, D2, D3 or D4 other than 5-HT2c were used as a receptor, IC50 values (nM) were measured in the same manner as in Experimental Example 1.

human 5-HT2c receptors = molecular target: T1, human 5-HT2c receptors (Homo sapiens, UniProt P28335); details: for Inhibition rate of serotonin (5-HT)-induced [35S]GTPS increase: 30 µM serotonin
T1 sequence (P28335 33-458): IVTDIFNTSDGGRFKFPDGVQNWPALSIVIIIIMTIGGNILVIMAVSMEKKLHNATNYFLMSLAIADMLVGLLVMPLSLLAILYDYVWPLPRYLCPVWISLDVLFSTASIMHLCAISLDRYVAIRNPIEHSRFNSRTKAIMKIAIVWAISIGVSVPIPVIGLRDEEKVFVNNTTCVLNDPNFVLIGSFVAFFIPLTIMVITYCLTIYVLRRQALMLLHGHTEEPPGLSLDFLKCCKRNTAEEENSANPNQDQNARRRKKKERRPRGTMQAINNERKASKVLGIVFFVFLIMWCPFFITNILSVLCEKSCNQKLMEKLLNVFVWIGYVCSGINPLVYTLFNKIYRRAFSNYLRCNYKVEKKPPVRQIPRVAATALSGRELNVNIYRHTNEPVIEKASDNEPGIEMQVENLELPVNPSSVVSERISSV

D3 = D3 (Homo sapiens, UniProt P35462); test: Receptor selectivity binding, D3; details: Table 3
Sequence of D3 (P35462 whole entry): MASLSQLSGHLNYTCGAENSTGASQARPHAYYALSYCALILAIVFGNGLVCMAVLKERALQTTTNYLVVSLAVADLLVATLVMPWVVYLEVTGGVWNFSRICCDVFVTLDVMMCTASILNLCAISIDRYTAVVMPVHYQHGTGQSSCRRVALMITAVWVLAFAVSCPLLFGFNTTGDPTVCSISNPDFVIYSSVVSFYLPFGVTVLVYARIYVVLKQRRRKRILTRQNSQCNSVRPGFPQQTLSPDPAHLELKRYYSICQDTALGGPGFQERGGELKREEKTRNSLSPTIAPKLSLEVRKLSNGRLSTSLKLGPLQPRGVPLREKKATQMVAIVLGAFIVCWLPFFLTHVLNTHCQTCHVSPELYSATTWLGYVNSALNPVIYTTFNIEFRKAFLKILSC
Protocol: as §1

5-HT6 = 5-HT6 (Homo sapiens, UniProt P50406); test: Receptor selectivity binding, 5-HT6; details: Table 3
Sequence of 5-HT6 (P50406 whole entry, species assumed): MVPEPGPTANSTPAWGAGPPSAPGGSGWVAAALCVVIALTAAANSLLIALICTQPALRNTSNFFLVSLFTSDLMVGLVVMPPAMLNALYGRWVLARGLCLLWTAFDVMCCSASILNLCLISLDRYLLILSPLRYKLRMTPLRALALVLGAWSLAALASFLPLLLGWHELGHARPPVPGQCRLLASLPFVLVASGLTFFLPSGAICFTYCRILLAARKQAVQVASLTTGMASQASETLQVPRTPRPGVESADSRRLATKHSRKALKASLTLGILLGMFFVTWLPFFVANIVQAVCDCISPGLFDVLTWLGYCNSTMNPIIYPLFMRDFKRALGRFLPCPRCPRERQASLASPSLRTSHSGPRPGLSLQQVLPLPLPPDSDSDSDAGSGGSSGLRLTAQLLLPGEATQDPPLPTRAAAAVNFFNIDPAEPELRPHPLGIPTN
Protocol: as §1

5-HT1a = molecular target: T2, 5-HT1a (Homo sapiens, UniProt P08908); test: Receptor selectivity binding, 5-HT1a; details: Table 3
T2 sequence (P08908 1-422): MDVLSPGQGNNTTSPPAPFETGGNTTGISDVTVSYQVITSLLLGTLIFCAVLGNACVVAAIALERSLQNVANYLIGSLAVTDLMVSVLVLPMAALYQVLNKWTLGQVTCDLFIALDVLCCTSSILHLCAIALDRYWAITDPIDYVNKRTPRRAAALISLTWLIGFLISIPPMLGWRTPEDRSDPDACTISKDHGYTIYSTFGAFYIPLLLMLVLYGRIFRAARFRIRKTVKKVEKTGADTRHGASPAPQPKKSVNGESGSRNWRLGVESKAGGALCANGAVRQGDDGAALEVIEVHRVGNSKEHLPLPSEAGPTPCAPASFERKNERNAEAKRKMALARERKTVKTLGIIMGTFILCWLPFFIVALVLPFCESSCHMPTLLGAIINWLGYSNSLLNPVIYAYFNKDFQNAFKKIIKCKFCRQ
Protocol: as §1

[1] = molecular target: T3, human gene recombinant 5-HT2c receptor expressed in CHO-K1 cell (Homo sapiens, UniProt P28335); test: Binding affinity to the serotonin 5-HT2c receptor ([3H]mesulergine)
T3 construct: purchased Euroscreen, Belgium; host or cells: CHO-K1
T3 sequence (P28335 33-458): T1 sequence (P28335 33-458)
Protocol: As a receptor, a human gene recombinant 5-HT2c receptor expressed in CHO—K1 cell was purchased from Euroscreen, Belgium and used in the experiment, and as a radioactive isotope, [3H]mesulergine (Amersham Biosciences, UK).
A final volume of 0.25 ml reaction mixture was prepared by adding 50 mM Tris-HCl buffer (pH 7.7) containing one of the compounds in Examples 1-29 or Comparative Examples 1-2, 1 nM of [3H]mesulergine, 5-HT2c receptor membranes (4 D/well), 0.1% ascorbic acid and 10 µM pargyline, and incubated at 37° C. for 30 minutes. After incubation, the reaction was terminated by the rapid filtration using an Inotech harvester (Inotech) through a Wallace GF/C glass fiber filter (Wallac, Finland) which was presoaked in 1% BSA, and then washed with ice-cold 50 mM Tris-HCl buffer. The filter was covered with MeltiLex, sealed in a sample bag followed by drying in the oven, and counted by MicroBeta Plus (Wallac). Non-specific binding was determined in the presence of […] Mianserin. Three repeating experiments were carried out with 7-8 concentrations of the compound in Examples 1-29 or the compound in comparative examples 1-2, run in duplicate tubes, and isotherms from the three assays were calculated by a nonlinear regression analysis (GraphPad Prism Program, San Diego, USA) to yield IC50 values.

D2 = D2 (Homo sapiens, UniProt P14416); test: Receptor selectivity binding, D2; details: Table 3
Sequence of D2 (P14416 whole entry): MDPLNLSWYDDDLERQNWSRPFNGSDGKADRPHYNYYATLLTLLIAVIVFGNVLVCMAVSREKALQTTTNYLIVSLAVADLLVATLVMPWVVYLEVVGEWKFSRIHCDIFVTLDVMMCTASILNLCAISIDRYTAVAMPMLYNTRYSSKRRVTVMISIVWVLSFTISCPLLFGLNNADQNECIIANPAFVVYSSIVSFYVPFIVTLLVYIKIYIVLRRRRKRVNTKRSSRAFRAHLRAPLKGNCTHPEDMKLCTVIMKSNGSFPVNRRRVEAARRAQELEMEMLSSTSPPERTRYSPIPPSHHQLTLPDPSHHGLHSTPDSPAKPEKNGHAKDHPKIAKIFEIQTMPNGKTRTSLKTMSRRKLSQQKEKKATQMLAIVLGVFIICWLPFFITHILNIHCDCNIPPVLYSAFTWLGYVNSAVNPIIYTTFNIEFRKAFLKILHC
Protocol: as §1

D4 = molecular target: T4, D4 (Homo sapiens, UniProt P21917); test: Receptor selectivity binding, D4; details: Table 3
T4 sequence (P21917 1-419): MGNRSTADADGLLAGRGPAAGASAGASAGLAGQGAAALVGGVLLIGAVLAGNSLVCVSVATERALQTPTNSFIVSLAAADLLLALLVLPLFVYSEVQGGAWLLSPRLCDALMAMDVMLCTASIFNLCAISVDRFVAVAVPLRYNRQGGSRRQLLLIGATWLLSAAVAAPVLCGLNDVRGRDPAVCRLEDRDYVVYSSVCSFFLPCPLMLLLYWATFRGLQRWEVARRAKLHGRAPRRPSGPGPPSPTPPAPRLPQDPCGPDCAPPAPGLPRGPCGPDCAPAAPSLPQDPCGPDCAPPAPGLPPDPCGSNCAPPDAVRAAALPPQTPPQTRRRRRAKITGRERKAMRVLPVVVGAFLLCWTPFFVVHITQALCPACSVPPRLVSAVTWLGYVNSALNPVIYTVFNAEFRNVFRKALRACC
Protocol: as §1

5-HT2a = 5-HT2a (Homo sapiens, UniProt P28223); test: Receptor selectivity binding, 5-HT2a; details: Table 3
Sequence of 5-HT2a (P28223 whole entry, species assumed): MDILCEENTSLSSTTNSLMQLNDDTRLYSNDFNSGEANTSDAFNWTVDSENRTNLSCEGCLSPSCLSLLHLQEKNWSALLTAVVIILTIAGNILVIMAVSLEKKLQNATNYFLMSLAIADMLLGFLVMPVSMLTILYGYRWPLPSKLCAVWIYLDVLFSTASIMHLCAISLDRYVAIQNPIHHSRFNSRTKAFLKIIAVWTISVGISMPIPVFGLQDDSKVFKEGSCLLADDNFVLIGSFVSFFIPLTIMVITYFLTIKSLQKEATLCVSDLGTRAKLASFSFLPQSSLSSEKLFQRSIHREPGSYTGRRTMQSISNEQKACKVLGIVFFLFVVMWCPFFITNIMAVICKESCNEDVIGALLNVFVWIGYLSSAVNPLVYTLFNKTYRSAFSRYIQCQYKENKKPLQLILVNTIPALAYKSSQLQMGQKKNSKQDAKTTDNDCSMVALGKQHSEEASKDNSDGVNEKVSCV
Protocol: as §1

[2] = [3H]mesulergine 1 nM, 37° C. 30 minutes, Table 2, read-out: IC50

SMILES	pIC50 (5-HT7)	Inhibition rate of serotonin (5-HT)-induced [35S]GTPS increase (human 5-HT2c receptors; concentration 0.001 µM) [%]	Inhibition rate of serotonin (5-HT)-induced [35S]GTPS increase (human 5-HT2c receptors; concentration 0.01 µM) [%]	Inhibition rate of serotonin (5-HT)-induced [35S]GTPS increase (human 5-HT2c receptors; concentration 0.1 µM) [%]	Inhibition rate of serotonin (5-HT)-induced [35S]GTPS increase (human 5-HT2c receptors; concentration 1 µM) [%]	Inhibition rate of serotonin (5-HT)-induced [35S]GTPS increase (human 5-HT2c receptors; concentration 10 µM) [%]	pIC50 (human 5-HT2c receptors; read-out: IC50, antagonist activity on serotonin (5-HT)-induced GTP level increase, 30 M serotonin)	pIC50 (D3)	pIC50 (5-HT6)	pIC50 (5-HT1a)	pIC50 ([1]; Table 3, read-out: IC50 5-HT2c)	pIC50 [1, 2]	pIC50 (D2)	pIC50 (D4)	pIC50 (5-HT2a)	inhibition of the 5-HT-induced increase in [35S]GTPS concentration level (human 5-HT2c receptors; control 5-HT2c antagonist)
O=C(Nc1ccc(Oc2cccnc2Cl)nc1)c1c[nH]c2ccccc12 [Example 22, 1H-indole-3-carboxylic acid[6-(2-chloro-pyridine-3-yloxy)-pyridine-3-yl]-amide]	< 5.00	0	1	9	67	100	6.23	< 5.00	< 5.00	< 5.00	9.30	9.30	< 5.00	< 6.00	< 6.00	–
Cc1ccc2[nH]cc(C(=O)Nc3ccc(Oc4cccnc4C)nc3)c2c1 [Example 14, 5-methyl-1H-indole-3-carboxylic acid[6-(2-methyl-pyridine-3-yloxy)-pyridine-3-yl]-amide]	< 5.00	–	–	–	–	–	–	< 5.00	< 5.00	< 5.00	8.35	8.35	< 5.00	< 5.00	< 6.00	–
Cc1ncccc1Oc1ccc(NC(=O)c2c[nH]c3ccc(I)cc23)cn1 [Example 18, 5-iodo-1H-indole-3-carboxylic acid[6-(2-methyl-pyridine-3-yloxy)-pyridine-3-yl]-amide]	< 6.00	–	–	–	–	–	–	< 6.00	< 6.00	6.11	9.21	9.22	< 5.00	< 6.00	7.07	–
O=C(Nc1ccc(OCc2ccccn2)nc1)c1c[nH]c2ccccc12 [Example 20, 1H-indole-3-carboxylic acid[6-(pyridine-2-ylmethoxy)-pyridine-3-yl]-amide]	< 5.00	–	–	–	–	–	–	< 5.00	< 6.00	< 5.00	8.23	8.23	< 5.00	< 5.00	< 5.00	–
Cc1cc2c(cc1C(F)(F)F)N(C(=O)Nc1ccc(Oc3cccnc3C)nc1)CC2 [Comparative Example 1, SB-243213, reference compound]	< 6.00	–	–	–	–	–	–	< 6.00	6.18	< 6.00	9.15	9.15	< 6.00	< 5.00	7.49	–
Cc1cc2c(cc1Cl)N(C(=O)Nc1ccc(Oc3cccnc3C)nc1)CC2 [SB242084, reference compound]	–	–	–	–	–	–	–	–	–	–	–	–	–	–	–	inhibited
Cc1ncccc1Oc1ccc(NC(=O)c2c[nH]c3c(C)cccc23)cn1 [Example 17, 7-methyl-1H-indole-3-carboxylic acid[6-(2-methyl-pyridine-3-yloxy)-pyridine-3-yl]-amide]	< 5.00	–	–	–	–	–	–	< 5.00	< 5.00	< 5.00	8.09	8.09	< 5.00	< 5.00	< 5.00	–
